These compounds were tested against T1, human LPA1 (Homo sapiens, UniProt Q92633) (assay: LPA1 calcium flux assay). Settings: human LPA1 expressing CHO cells, stimulated with 10 nM LPA; read-out: HLPA1 Ca Flux IC50.
T1 construct: the full-length cDNA for human LPA1 was obtained by PCR of the reverse transcription reaction; expressed in transfected cells
T1 sequence (Q92633 whole entry): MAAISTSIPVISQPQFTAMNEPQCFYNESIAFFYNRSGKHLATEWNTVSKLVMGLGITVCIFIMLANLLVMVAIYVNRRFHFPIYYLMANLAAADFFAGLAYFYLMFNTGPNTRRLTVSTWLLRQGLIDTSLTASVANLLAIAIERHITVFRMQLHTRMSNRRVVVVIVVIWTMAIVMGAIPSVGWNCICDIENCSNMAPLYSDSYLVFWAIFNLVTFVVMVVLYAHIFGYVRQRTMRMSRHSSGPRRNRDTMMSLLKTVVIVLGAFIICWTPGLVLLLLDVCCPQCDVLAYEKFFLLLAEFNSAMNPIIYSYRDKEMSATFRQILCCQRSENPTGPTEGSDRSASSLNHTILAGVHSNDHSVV
Type: cell-based
In short: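 CHO cells stably expressing human LPA1, serum-starved overnight and loaded with Calcium 4 dye in HBSS/20 mM Hepes/0.3% fatty-acid-free HSA, 1 h at 37 °C. Compounds pre-incubated 30 min at room temperature, then 10 nM LPA added; intracellular Ca2+ flux measured and IC50 from titration curves.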
`Cc1noc(-c2ccc(-c3ccc(C4(C(=O)O)CC4)cc3)cc2)c1Nc1cccc(C(=O)NC2CC2)n1` [Compound 1-137, 1-{4′-[4-(6-Cyclopropylcarbamoyl-pyridin-2-ylamino)-3-methyl-isoxazol-5-yl]-biphenyl-4-yl}-cyclopropanecarboxylic acid] was tested, and the IC50 was under 300 nM. `Cc1noc(-c2ccc(-c3ccc(C4(C(=O)O)CC4)cc3)cc2)c1Nc1cccc(OC2CCCCC2)n1` [Compound 1-138, 1-{4′-[4-(6-Cyclohexyloxy-pyridin-2-ylamino)-3-methyl-isoxazol-5-yl]-biphenyl-4-yl}-cyclopropanecarboxylic acid] showed an IC50 of under 300 nM. Work on `Cc1noc(-c2ccc(-c3ccc(C4(C(=O)O)CC4)cc3)cc2)c1Nc1cccc(OC2CCC2)n1` [Compound 1-139, 1-{4′-[4-(6-Cyclobutoxy-pyridin-2-ylamino)-3-methyl-isoxazol-5-yl]-biphenyl-4-yl}-cyclopropanecarboxylic acid] yielded an IC50 of under 300 nM. `Cc1noc(-c2ccc(-c3ccc(C4(C(=O)O)CC4)cc3)cc2)c1Nc1cccc(OC(C)C2CCCCC2)n1` (centres unmarked) [Compound 1-140, 1-(4′-{4-[6-(1-Cyclohexyl-ethoxy)-pyridin-2-ylamino]-3-methyl-isoxazol-5-yl}-biphenyl-4-yl)-cyclopropanecarboxylic acid] showed an IC50 of under 300 nM. `Cc1noc(-c2ccc(-c3ccc(C4(C(=O)O)CC4)cc3)cc2)c1Nc1cccc(OCCc2ccccc2)n1` [Compound 1-141, 1-{4′-[3-Methyl-4-(6-phenethyloxy-pyridin-2-ylamino)-isoxazol-5-yl]-biphenyl-4-yl}-cyclopropanecarboxylic acid] gave an IC50 of under 300 nM. Work on `Cc1noc(-c2ccc(-c3ccc(C(=O)O)cc3)cc2)c1Nc1nnc(-c2ccccc2)o1` [Compound 1-142, 4′-[3-Methyl-4-(5-phenyl-[1,3,4]oxadiazol-2-ylamino)-isoxazol-5-yl]-biphenyl-4-carboxylic acid] yielded an IC50 of 1000 to 50000 nM. With `Cc1noc(-c2ccc(-c3ccc(C4(C(=O)O)CC4)cc3)cc2)c1Nc1cccc(N2CCOC2=O)n1` [Compound 1-143, 1-(4′-{3-Methyl-4-[6-(2-oxo-oxazolidin-3-yl)-pyridin-2-ylamino]-isoxazol-5-yl}-biphenyl-4-yl)-cyclopropanecarboxylic acid] the IC50 was under 300 nM. `Cc1noc(-c2ccc(-c3ccc(C4(C(=O)O)CC4)cc3)cc2)c1Nc1cccc(-c2cccc(C(N)=O)c2)n1` [Compound 1-144, 1-(4′-{4-[6-(3-Carbamoyl-phenyl)-pyridin-2-ylamino]-3-methyl-isoxazol-5-yl}-biphenyl-4-yl)-cyclopropanecarboxylic acid] gave an IC50 of under 300 nM. `Cc1noc(-c2ccc(-c3ccc(C4(C(=O)O)CC4)cc3)cc2)c1Nc1cccc(-c2cccc(C#N)c2)n1` [Compound 1-145, 1-(4′-{4-[6-(3-Cyano-phenyl)-pyridin-2-ylamino]-3-methyl-isoxazol-5-yl}-biphenyl-4-yl)-cyclopropanecarboxylic acid] gave an IC50 of under 300 nM. `COc1ccc(F)cc1-c1cccc(Nc2c(C)noc2-c2ccc(-c3ccc(C4(C(=O)O)CC4)cc3)cc2)n1` [Compound 1-146, 1-(4′-{4-[6-(5-Fluoro-2-methoxy-phenyl)-pyridin-2-ylamino]-3-methyl-isoxazol-5-yl}-biphenyl-4-yl)-cyclopropanecarboxylic acid] showed an IC50 of under 300 nM. In the case of `Cc1noc(-c2ccc(-c3ccc(C4(C(=O)O)CC4)cc3)cc2)c1Nc1cccc(-c2cc(F)cc(Cl)c2)n1` [Compound 1-147, 1-(4′-{4-[6-(3-Chloro-5-fluoro-phenyl)-pyridin-2-ylamino]-3-methyl-isoxazol-5-yl}-biphenyl-4-yl)-cyclopropanecarboxylic acid], the IC50 is reported as under 300 nM. Work on `Cc1noc(-c2ccc(-c3ccc(C4(C(=O)O)CC4)cc3)cc2)c1Nc1cccc(-c2cc(F)ccc2F)n1` [Compound 1-148, 1-(4′-{4-[6-(2,5-Difluoro-phenyl)-pyridin-2-ylamino]-3-methyl-isoxazol-5-yl}-biphenyl-4-yl)-cyclopropanecarboxylic acid] yielded an IC50 of under 300 nM. In the case of `Cc1noc(-c2ccc(-c3ccc(C4(C(=O)O)CC4)cc3)cc2)c1Nc1cccc(-c2nn[nH]n2)n1` [Compound 1-149, 1-(4′-{3-Methyl-4-[6-(2H-tetrazol-5-yl)-pyridin-2-ylamino]-isoxazol-5-yl}-biphenyl-4-yl)-cyclopropanecarboxylic acid], the IC50 is reported as 1000 to 50000 nM. In the case of `Cc1noc(-c2ccc(-c3ccc(C4(C(=O)O)CC4)cc3)cc2)c1Nc1cccc(-c2c(Cl)cccc2Cl)n1` [Compound 1-150, 1-(4′-{4-[6-(2,6-Dichloro-phenyl)-pyridin-2-ylamino]-3-methyl-isoxazol-5-yl}-biphenyl-4-yl)-cyclopropanecarboxylic acid], the IC50 is reported as under 300 nM. In the case of `Cc1noc(-c2ccc(-c3ccc(C4(C(=O)O)CC4)cc3)cc2)c1Nc1cccc(-c2cc(F)ccc2Cl)n1` [Compound 1-151, 1-(4′-{4-[6-(2-Chloro-5-fluoro-phenyl)-pyridin-2-ylamino]-3-methyl-isoxazol-5-yl}-biphenyl-4-yl)-cyclopropanecarboxylic acid], the IC50 is reported as under 300 nM. In the case of `Cc1noc(-c2ccc(-c3ccc(C4(C(=O)O)CC4)cc3)cc2)c1Nc1cccc(-c2cccc(F)c2F)n1` [Compound 1-152, 1-(4′-{4-[6-(2,3-Difluoro-phenyl)-pyridin-2-ylamino]-3-methyl-isoxazol-5-yl}-biphenyl-4-yl)-cyclopropanecarboxylic acid], the IC50 is reported as under 300 nM. `Cc1noc(-c2ccc(-c3ccc(C4(C(=O)O)CC4)cc3)cc2)c1Nc1cccc(-c2cccc(F)c2Cl)n1` [Compound 1-153, 1-(4′-{4-[6-(2-Chloro-3-fluoro-phenyl)-pyridin-2-ylamino]-3-methyl-isoxazol-5-yl}-biphenyl-4-yl)-cyclopropanecarboxylic acid] gave an IC50 of under 300 nM. In the case of `Cc1noc(-c2ccc(-c3ccc(C4(C(=O)O)CC4)cc3)cc2)c1Nc1cccc(OCC2CC2)n1` [Compound 1-154, 1-{4′-[4-(6-Cyclopropylmethoxy-pyridin-2-ylamino)-3-methyl-isoxazol-5-yl]-biphenyl-4-yl}-cyclopropanecarboxylic acid], the IC50 is reported as under 300 nM. Work on `Cc1noc(-c2ccc(-c3ccc(C4(C(=O)O)CC4)cc3)cc2)c1Nc1cncc(-c2cccc(F)c2Cl)c1` [Compound 1-155, 1-(4′-{4-[5-(2-Chloro-3-fluoro-phenyl)-pyridin-3-ylamino]-3-methyl-isoxazol-5-yl}-biphenyl-4-yl)-cyclopropanecarboxylic acid] yielded an IC50 of under 300 nM. `Cc1noc(-c2ccc(-c3ccc(C4(C(=O)O)CC4)cc3)cc2)c1Nc1cccc(-c2cccc(F)c2C)n1` [Compound 1-156, 1-(4′-{4-[6-(3-Fluoro-2-methyl-phenyl)-pyridin-2-ylamino]-3-methyl-isoxazol-5-yl}-biphenyl-4-yl)-cyclopropanecarboxylic acid] gave an IC50 of under 300 nM. With `Cc1noc(-c2ccc(-c3ccc(C4(C(=O)O)CC4)cc3)cc2)c1Nc1cccc(-c2cccc(C(F)(F)F)c2Cl)n1` [Compound 1-157, 1-(4′-{4-[6-(2-Chloro-3-trifluoromethyl-phenyl)-pyridin-2-ylamino]-3-methyl-isoxazol-5-yl}-biphenyl-4-yl)-cyclopropanecarboxylic acid] the IC50 was under 300 nM. For `Cc1noc(-c2ccc(-c3ccc(C4(C(=O)O)CC4)cc3)cc2)c1Nc1cccc(-c2cccc(Cl)c2Cl)n1` [Compound 1-158, 1-(4′-{4-[6-(2,3-Dichloro-phenyl)-pyridin-2-ylamino]-3-methyl-isoxazol-5-yl}-biphenyl-4-yl)-cyclopropanecarboxylic acid], the IC50 was under 300 nM. Compound `COc1c(F)cccc1-c1cccc(Nc2c(C)noc2-c2ccc(-c3ccc(C4(C(=O)O)CC4)cc3)cc2)n1` [Compound 1-159, 1-(4′-{4-[6-(3-Fluoro-2-methoxy-phenyl)-pyridin-2-ylamino]-3-methyl-isoxazol-5-yl}-biphenyl-4-yl)-cyclopropanecarboxylic acid] has an IC50 of under 300 nM. Work on `Cc1noc(-c2ccc(-c3ccc(C4(C(=O)O)CC4)cc3)cc2)c1Nc1cncc(-c2cccc(Cl)c2)c1` [Compound 1-160, 1-(4′-{4-[5-(3-Chloro-phenyl)-pyridin-3-ylamino]-3-methyl-isoxazol-5-yl}-biphenyl-4-yl)-cyclopropanecarboxylic acid] yielded an IC50 of under 300 nM. `Cc1noc(-c2ccc(-c3ccc(C4(C(=O)O)CC4)cc3)cc2)c1Nc1cncc(-c2cc(F)ccc2F)c1` [Compound 1-161, 1-(4′-{4-[5-(2,5-Difluoro-phenyl)-pyridin-3-ylamino]-3-methyl-isoxazol-5-yl}-biphenyl-4-yl)-cyclopropanecarboxylic acid] gave an IC50 of under 300 nM. With `Cc1noc(-c2ccc(-c3ccc(C4(C(=O)O)CC4)cc3)cc2)c1Nc1cccc(-c2cccc(Cl)c2)n1` [Compound 1-162, 1-(4′-{4-[6-(3-Chloro-phenyl)-pyridin-2-ylamino]-3-methyl-isoxazol-5-yl}-biphenyl-4-yl)-cyclopropanecarboxylic acid] the IC50 was under 300 nM. Work on `CCc1noc(-c2ccc(-c3ccc(C4(C(=O)O)CC4)cc3)cc2)c1Nc1cccc(-c2ccccc2)n1` [Compound 2-1, 1-{4′-[3-Ethyl-4-(6-phenyl-pyridin-2-ylamino)-isoxazol-5-yl]-biphenyl-4-yl}-cyclopropanecarboxylic acid] yielded an IC50 of under 300 nM. In the case of `CCc1noc(-c2ccc(-c3ccc(C4(C(=O)O)CC4)cc3)cc2)c1Nc1nnc(-c2ccccc2)o1` [Compound 2-2, 1-{4′-[3-Ethyl-4-(5-phenyl-[1,3,4]oxadiazol-2-ylamino)-isoxazol-5-yl]-biphenyl-4-yl}-cyclopropanecarboxylic acid], the IC50 is reported as under 300 nM. `Cc1noc(-c2ccc(-c3ccc(C4(C(=O)NS(C)(=O)=O)CC4)cc3)cc2)c1C(O)c1cn(Cc2cccc(C(F)(F)F)c2)nn1` (centres unmarked) [Compound 3-3, N-{1-[4′-(4-{Hydroxy-[1-(3-trifluoromethyl-benzyl)-1H-[1,2,3]triazol-4-yl]-methyl}-3-methyl-isoxazol-5-yl)-biphenyl-4-yl]-cyclopropanecarbonyl}-methanesulfonamide] was tested, and the IC50 was 1000 to 50000 nM.

— US8664220B2, “Polycyclic compounds as lysophosphatidic acid receptor antagonists” (Amira Pharmaceuticals, Inc., priority 2009, dated 2014)
